Molecules are shown by their SMILES. ≈ marks a conversion by molar mass, not a printed value. Read-outs that look alike come from different tables or passages of the source.

In data set [1] the test system is Balanus amphitrite larvae. The experiment in a line: Larval settlement bioassay, barnacle Balanus amphitrite cyprids. The format is in vivo. Particulars: for concentration at which significant inhibition of larval settlement was observed / inhibition of larval settlement (in words): B. amphitrite; for concentration at which significant inhibition of larval settlement was observed: compared with controls; for toxicity rating from LC50/EC50 ratio: according to Avelin et al. 1993 and Rittschof et al. 1994, ratios for all tested larvae. The protocol: (§1) The nauplii were reared in freshly filtered nature seawater (FSW, 0.45 μm, 32 S salinity) and fed with Chaetoceros gracilis Schutt at 24° C. in the Coastal Marine Laboratory the Hong Kong University of Science and Technology (HKUST). Cyprids were stored for 2 days at 8° C. (aged cyprids) prior to being used in the bioassays. Ten μl of each test sample dissolved in dimethyl sulfoxide (DMSO) were transferred into a well in 24-well polystyrene plate after the addition of 1 ml of FSW. The control wells contained 1 ml of FSW and 10 μl of DMSO. About 15 cyprids were added in each well with triplicate samples being tested.

For the next data set, the system named is Hydroides elegans larvae. The experiment in a line: Larval settlement bioassay, Hydroides elegans competent larvae. The note with it: for concentration at which significant inhibition of larval settlement was observed / inhibition of larval settlement (in words): H. elegans; for concentration at which significant inhibition of larval settlement was observed: compared with controls; for EC50: Hydroides elegans, 24 h, mean of at least three replicates, read-out: EC50 against larval settlement. The format is in vivo. The protocol: (§2) The 24-well plates were incubated at 28° C. for 24 h under a 15 h light/9 h dark photoperiod. The percentage of larval settlement and larval mortality was determined by counting the settled, live individuals under a dissecting microscope and expressing the result as a proportion of the total number of larvae in the well.

Assay in data set [2]: as above
The note with it: competent larvae, in vivo, other: immersion, sample added to the seawater in the well; Hydroides elegans; highest concentration examined causing <50% death of larvae. The data set is classed as in vivo. The protocol: as §2

The nature of data set [3]: Larval settlement bioassay, barnacle Balanus amphitrite cyprids. The format is in vivo. The note with it: Balanus amphitrite (barnacle), cyprid larvae, in vivo, other: immersion, sample added to the seawater in the well. The protocol:
as §1

In a further data set the test system is Bugula neritina larvae. Briefly: Larval settlement bioassay, Bugula neritina. Particulars: for inhibition of larval settlement (in words): B. neritina.
A short description of the next data set: in vivo. Particulars: Bugula neritina, larvae.
A short description of data set [4]: Degradation in buffer solutions and seawater. The data set is classed as physicochemical.
Setting [5] is: Table 3, Balanus amphitrite larvae.
Where [6] appears, read: Table 3, Balanus amphitrite larvae, value ± spread.
Setting [7] is: Amphibalanus amphitrite, 24 h, Balanus amphitrite, 24 h, mean of at least three replicates, read-out: EC50 against larval settlement.
Where [8] appears, read: Amphibalanus amphitrite, Table 3, Balanus amphitrite larvae, value ± spread, read-out: EC50.
Where [9] appears, read: Balanus amphitrite, highest concentration examined causing <50% death of larvae.

In the case of `CC(O)C(C)(O)CCCC1C=CC(=O)O1` (centres unmarked) [Compound 9], in data set [1] (setting [5]), the LC50 – broadly, the concentration lethal to half of the exposed cells or organisms – is over 100 µg/mL. Also, in data set [1] (setting [6]), the 50% effective concentration (EC50) (in general, the concentration that produces a half-maximal response) was over 100 µg/mL.
Take `CCC(C)(O)CCCCCC1C=CC(=O)O1` (centres unmarked) [Compound 1]: the “concentration at which significant inhibition of larval settlement was observed” value (with Hydroides elegans larvae; in data set [1]) was 10 µg/mL in each case. Moreover, the results for the concentration for a half-maximal effect (EC50) (with Hydroides elegans larvae; in data set [1] (setting [7]); in data set [1] (setting [8])) were 12 µg/mL (≈ 53 µM), 14.8 µg/mL (≈ 65.4 µM) and 14.8 ± 5.54 µg/mL (≈ 65.4 µM), respectively. For the same molecule, the median lethal concentration (LC50) at 24 h in data set [2], in data set [3] (setting [9]) and in data set [3] (setting [5]) was over 100 µg/mL in each case.
For `CC(CCCCCC1C=CC(=O)O1)C(C)OC1CCCCO1` (centres unmarked) [Compound 5], the “inhibition of larval settlement (in words)” value (“inhibition … (in words)” below) (in the data set with Hydroides elegans larvae; in data set [1]; in the data set with Bugula neritina larvae) was “distinct inhibition effects” in each case. The half-maximal effective concentration (EC50) in the data set with Hydroides elegans larvae was 6.4 µg/mL (≈ 20.6 µM); in data set [1] (setting [7]) it was 3.6 µg/mL (≈ 11.6 µM); in data set [1] (setting [8]), 3.6 ± 0.56 µg/mL (≈ 11.6 µM). For the same molecule, the values for the LC50 at 24 h in data set [2], in data set [3] (setting [9]) and in data set [3] (setting [5]) were over 100 µg/mL, over 80 µg/mL and over 80 µg/mL, respectively. Also, the “toxicity rating from LC50/EC50 ratio” value in data set [1] was “nontoxic or low toxic compound”.
Take `CCCCCCCCC1C=CC(=O)O1` (centres unmarked) [Compound 6, 5-octylfuran-2-one]: the “inhibition … (in words)” value (in the data set on Hydroides elegans larvae; in data set [1]; with Bugula neritina larvae) was “distinct inhibition effects” each time. Also, the results for the EC50 (in the data set on Hydroides elegans larvae; in data set [1] (setting [7]); in data set [1] (setting [8])) were 0.017 µg/mL (≈ 0.0866 µM), 0.52 µg/mL (≈ 2.65 µM) and 0.52 ± 0.06 µg/mL (≈ 2.65 µM), respectively. Further, the LC50 at 24 h in data set [2] is over 2 µg/mL; in data set [3] (setting [9]), over 50 µg/mL; in data set [3] (setting [5]), over 50 µg/mL. For the same molecule, the LC50 in “in vivo” is over 50 µg/mL. Also, in data set [4], the “degradation in natural seawater” value was “can be easily degradated in natural seawater”. Also, the “toxicity rating from LC50/EC50 ratio” value in data set [1] is “nontoxic or low toxic compound”. Moreover, the “EC50 against larval settlement” value in the data set on Bugula neritina larvae (Bugula neritina, mean of at least three replicates) worked out at 0.2 µg/mL (≈ 1.02 µM).
Regarding `CC(O)C(C)(O)CCCC1C=CC(=O)O1` (single isomer, unassigned) [Compound 11], the 50% effective concentration (EC50) in data set [1] (setting [8]) is over 100 µg/mL. For the same molecule, the LC50 at 24 h in data set [3] (setting [5]) was over 100 µg/mL.
In the case of `CC(C)(O)CCCCCC1C=CC(=O)O1` (centres unmarked) [Compound 4], the “concentration at which significant inhibition of larval settlement was observed” value with Hydroides elegans larvae turned out to be 8 µg/mL. For the same molecule, the EC50 was 12.7 µg/mL (≈ 59.8 µM) in the data set on Hydroides elegans larvae, over 100 µg/mL in data set [1] (setting [7]) and over 100 µg/mL in data set [1] (setting [8]). In addition, the 50% lethal concentration (LC50) at 24 h was over 40 µg/mL in data set [2], over 140 µg/mL in data set [3] (setting [9]) and over 140 µg/mL in data set [3] (setting [5]). Besides, the “inhibition … (in words)” value in data set [1] is given as “efficient against the larval settlements especially for B. amphitrite”.
On to `CC(=O)C(C)CCCCCC1C=CC(=O)O1` (centres unmarked) [Compound 3], for which the “concentration at which significant inhibition of larval settlement was observed” value with Hydroides elegans larvae worked out at 5 µg/mL; in data set [1], 25 µg/mL. The values for the concentration for a half-maximal effect (EC50) (with Hydroides elegans larvae; in data set [1] (setting [7]); in data set [1] (setting [8])) were 5.6 µg/mL (≈ 25 µM), 8.67 µg/mL (≈ 38.7 µM) and 8.67 ± 2.73 µg/mL (≈ 38.7 µM), respectively. The LC50 at 24 h in data set [2], in data set [3] (setting [9]) and in data set [3] (setting [5]) was over 100 µg/mL each time.
The molecule `CC(O)C(C)(O)CCCC1C=CC(=O)O1` (centres unmarked) [Compound 8] yielded an LC50 in data set [1] (setting [5]) of over 100 µg/mL. This molecule came in with a 50% effective concentration (EC50) in data set [1] (setting [6]) of over 100 µg/mL.
`CC(O)C(C)(O)CCCC1C=CC(=O)O1` (centres unmarked) [Compound 7] returned a 50% lethal concentration (LC50) in data set [1] (setting [5]) of over 25 µg/mL. The same molecule yielded an EC50 in data set [1] (setting [6]) of 4.82 ± 1.25 µg/mL (≈ 22.5 µM).
Taken in the same sequence, the figures for `CC(O)C(C)(O)CCCC1C=CC(=O)O1` (centres unmarked) [Compound 10] were over 100 µg/mL and over 100 µg/mL.
On to `CC(O)C(C)CCCCCC1C=CC(=O)O1` (centres unmarked) [Compound 2], for which the figures for the “concentration at which significant inhibition of larval settlement was observed” value (in the data set with Hydroides elegans larvae; in data set [1]) were 5 µg/mL and 10 µg/mL, respectively. Also, the values for the EC50 (in the data set on Hydroides elegans larvae; in data set [1] (setting [7]); in data set [1] (setting [8])) were 4.4 µg/mL (≈ 19.4 µM), 9.65 µg/mL (≈ 42.6 µM) and 9.65 ± 1.5 µg/mL (≈ 42.6 µM), respectively. For the same molecule, the LC50 at 24 h in data set [2], in data set [3] (setting [9]) and in data set [3] (setting [5]) was over 100 µg/mL throughout.

Values taken from patent US8177896B2, “Antifouling furan-2-one derivatives” (The Hong Kong University of Science and Technology, priority 2008, dated 2012).
